Experimental data from US20230085307A1, “PYRIDAZINONE COMPOUND AND HERBICIDE” (NISSAN CHEMICAL CORPORATION, priority 2019, published 2023).

Key:
[1] = tested on: barnyard grass; test: Test Example 5: herbicidal effect by foliage application, plastic box (Table 20, symbol H); type: in vivo, barnyard grass (Echinochloa crus-galli); details: foliage application, 320 g/ha; for effect on barnyard grass (H): 3 weeks after application
Procedure, shortened: (§1)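 Plants were sown into sterilized diluvial soil under about 1.5 cm cover and kept in a greenhouse at 25° C. to 30° C. Fourteen days on, foliage received an even spray of the diluted emulsion. Herbicidal or crop effect was judged three weeks afterwards.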

[2] = tested on: lambsquarters; test: Test Example 4: herbicidal effect by soil treatment (Table 19, symbol O); type: in vivo, lambsquarters (Chenopodium album); details: amount of applied herbicide 320 g/ha
Description: (§2) [Test Example 4] Herbicidal Effect Test by Soil Treatment
(§3) Sterilized diluvial soil was placed in a plastic box having a length of 21 cm, a width of 13 cm, and a depth of 7 cm. The seeds of each of southern crabgrass, green foxtail, barnyard grass, wild oat, blackgrass, Italian ryegrass, windgrass, velvetleaf, redroot pigweed, lambsquarters, chickweed, false cleavers, persian speedwell, corn, soybean, rice, wheat, beet, and rapeseed were sowed in a spot-like manner and covered with the soil having a thickness of about 1.5 cm. Subsequently, the emulsion agent of the compound of the present invention prepared according to Formulation Example 2 was diluted with water so as to achieve a predetermined herbicide amount, and the diluted emulsion agent was uniformly applied to the surface of the soil with a small-sized spray. The plastic box was placed in a greenhouse at 25° C. to 30° C. for growth of the plants. Three weeks after the herbicide application, the effect of the herbicide on each plant was evaluated according to the criteria of Test Example 1.

[3] = tested on: velvetleaf; test: Test Example 4: herbicidal effect by soil treatment (Table 19, symbol M); type: in vivo, velvetleaf (Abutilon theophrasti); details: amount of applied herbicide 320 g/ha
Description: as §2, §3

[4] = tested on: velvetleaf; test: Test Example 5: herbicidal effect by foliage application, plastic box (Table 20, symbol M); type: in vivo, velvetleaf (Abutilon theophrasti); details: foliage application, 320 g/ha; for effect on velvetleaf (M): 3 weeks after application
Procedure, shortened: as §1

[5] = tested on: southern crabgrass; test: Test Example 4: herbicidal effect by soil treatment (Table 19, symbol F); type: in vivo, southern crabgrass (Digitaria ciliaris); details: amount of applied herbicide 320 g/ha
Description: as §2, §3

[6] = tested on: southern crabgrass; test: Test Example 5: herbicidal effect by foliage application, plastic box (Table 20, symbol F); type: in vivo, southern crabgrass (Digitaria ciliaris); details: foliage application, 320 g/ha; for effect on southern crabgrass (F): 3 weeks after application
Procedure, shortened: as §1

[7] = tested on: redroot pigweed; test: Test Example 5: herbicidal effect by foliage application, plastic box (Table 20, symbol N); type: in vivo, redroot pigweed (Amaranthus retroflexus); details: foliage application, 320 g/ha, three weeks after application
Description: [Test Example 5] Herbicidal Effect Test by Foliage Application
as §3, with “Thereafter, the plants were grown in a greenhouse at 25° C. to 30° C. After 14-day growth of the plants,” for “Subsequently,”, “a foliage part” for “the surface of the soil”, “spray.” for “spray. The plastic box was placed in a greenhouse at 25° C. to 30° C. for growth of the plants.”

[8] = tested on: Chinese sprangletop; test: Test Example 3: herbicidal effect by foliage application, Wagner pot (Table 18, symbol D); type: in vivo, chinese sprangletop (Leptochloa chinensis); details: for herbicidal effect on D (Chinese sprangletop), rating 0-5: 320 g/ha
Procedure, shortened: (§4)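 Plants were sown in alluvial soil held under 0.1–0.5 cm standing water and grown 14 days in a greenhouse at 25–30 °C. An emulsifiable formulation, water-diluted to the set dose, was then sprayed onto the foliage, and effects were scored three weeks later using previously defined criteria.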

[9] = tested on: redroot pigweed; test: Test Example 4: herbicidal effect by soil treatment (Table 19, symbol N); type: in vivo, redroot pigweed (Amaranthus retroflexus); details: amount of applied herbicide 320 g/ha
Description: as §2, §3

[10] = tested on: lambsquarters; test: Test Example 5: herbicidal effect by foliage application, plastic box (Table 20, symbol O); type: in vivo, lambsquarters (Chenopodium album); details: foliage application, 320 g/ha; for effect on lambsquarters (O): 3 weeks after application
Procedure, shortened: as §1

[11] = tested on: green foxtail; test: Test Example 5: herbicidal effect by foliage application, plastic box (Table 20, symbol G); type: in vivo, green foxtail (Setaria viridis); details: foliage application, 320 g/ha; for effect on green foxtail (G): 3 weeks after application
Procedure, shortened: as §1

[12] = tested on: green foxtail; test: Test Example 4: herbicidal effect by soil treatment (Table 19, symbol G); type: in vivo, green foxtail (Setaria viridis); details: amount of applied herbicide 320 g/ha
Description: as §2, §3

[13] = tested on: rice flat sedge; test: Test Example 3: herbicidal effect by foliage application, Wagner pot (Table 18, symbol E); type: in vivo, rice flat sedge (Cyperus iria); details: for herbicidal effect on E (rice flat sedge), rating 0-5: 320 g/ha
Procedure, shortened: as §4

[14] = tested on: barnyard grass; test: Test Example 4: herbicidal effect by soil treatment (Table 19, symbol H); type: in vivo, barnyard grass (Echinochloa crus-galli); details: amount of applied herbicide 320 g/ha
Description: as §2, §3

[15] = tested on: barnyard grass; test: Test Example 3: herbicidal effect by foliage application, Wagner pot (Table 18, symbol H); type: in vivo, barnyard grass (Echinochloa crus-galli); details: for herbicidal effect on H (barnyard grass), rating 0-5: 320 g/ha
Procedure, shortened: as §4

[16] = tested on: blackgrass; test: Test Example 5: herbicidal effect by foliage application, plastic box (Table 20, symbol J); type: in vivo, blackgrass (Alopecurus myosuroides); details: foliage application, 320 g/ha, 3 weeks after application
Procedure, shortened: as §1

[17] = tested on: Italian ryegrass; test: Test Example 5: herbicidal effect by foliage application, plastic box (Table 20, symbol K); type: in vivo, Italian ryegrass (Lolium multiflorum); details: foliage application, 320 g/ha, 3 weeks after application
Procedure, shortened: as §1

[18] = tested on: wild oat; test: Test Example 5: herbicidal effect by foliage application, plastic box (Table 20, symbol I); type: in vivo, wild oat (Avena fatua); details: foliage application, 320 g/ha, 3 weeks after application
Procedure, shortened: as §1

[19] = tested on: windgrass; test: Test Example 5: herbicidal effect by foliage application, plastic box (Table 20, symbol L); type: in vivo, windgrass (Apera spica-venti); details: foliage application, 320 g/ha, 3 weeks after application
Procedure, shortened: as §1

[20] = tested on: persian speedwell; test: Test Example 5: herbicidal effect by foliage application, plastic box (Table 20, symbol R); type: in vivo, Persian speedwell (Veronica persica); details: foliage application, 320 g/ha, 3 weeks after application
Procedure, shortened: as §1

[21] = amount of applied herbicide 320 g/ha

| SMILES | effect on barnyard grass (H) [1] | effect on blackgrass (J) [16] | effect on Italian ryegrass (K) [17] | effect on velvetleaf (M) [4] | effect on southern crabgrass (F) [6] | effect on wild oat (I) [18] | herbicidal effect on D (Chinese sprangletop), rating 0-5 [8] | effect on windgrass (L) [19] | effect on lambsquarters (O) [10] | effect on green foxtail (G) [11] | herbicidal effect on E (rice flat sedge), rating 0-5 [13] | effect on persian speedwell (R) [20] | herbicidal effect on H (barnyard grass), rating 0-5 [15] | also measured |
| --- | --- | --- | --- | --- | --- | --- | --- | --- | --- | --- | --- | --- | --- | --- |
| CC(CSc1ccc(-c2sc3ccc(F)cc3c2-c2c(O)c(C)nn(C)c2=O)cc1)=NO [2-452] | – | – | – | – | – | – | – | – | – | – | – | – | – | H: barnyard grass, herbicidal effect grade ([1]; three weeks after application): 5 (Herbicidal rate of 90% or more (almost completely withered)); herbicidal effect, O: lambsquarters [2]: 4 (Herbicidal rate of 70% or more and less than 90%); herbicidal effect, M: velvetleaf [3]: 0 (Herbicidal rate of 5% or less (almost no effect)); M: velvetleaf, herbicidal effect grade ([4]; three weeks after application): 5 (Herbicidal rate of 90% or more (almost completely withered)); herbicidal effect, F: southern crabgrass [5]: 0 (Herbicidal rate of 5% or less (almost no effect)); F: southern crabgrass, herbicidal effect grade ([6]; three weeks after application): 3 (Herbicidal rate of 40% or more and less than 70%); N: redroot pigweed, herbicidal effect grade [7]: 5 (Herbicidal rate of 90% or more (almost completely withered)); herbicidal effect on D: Chinese sprangletop [8, 21]: 0 (Herbicidal rate of 5% or less (almost no effect)); herbicidal effect, N: redroot pigweed [9]: 5 (Herbicidal rate of 90% or more (almost completely withered)); O: lambsquarters, herbicidal effect grade ([10]; three weeks after application): 5 (Herbicidal rate of 90% or more (almost completely withered)); G: green foxtail, herbicidal effect grade ([11]; three weeks after application): 5 (Herbicidal rate of 90% or more (almost completely withered)); herbicidal effect, G: green foxtail [12]: 0 (Herbicidal rate of 5% or less (almost no effect)); herbicidal effect on E: rice flat sedge [13, 21]: 5 (Herbicidal rate of 90% or more (almost completely withered)); herbicidal effect, H: barnyard grass [14]: 0 (Herbicidal rate of 5% or less (almost no effect)); herbicidal effect on H: barnyard grass [15, 21]: 5 (Herbicidal rate of 90% or more (almost completely withered)) |
| C#CCOc1c(C)nn(C)c(=O)c1-c1c(-c2ccc(F)cc2)sc2ccc(F)cc12 [2-006] | 0 (Herbicidal rate of 5% or less (almost no effect)) | 0 (Herbicidal rate of 5% or less (almost no effect)) | 0 (Herbicidal rate of 5% or less (almost no effect)) | 0 (Herbicidal rate of 5% or less (almost no effect)) | 0 (Herbicidal rate of 5% or less (almost no effect)) | 0 (Herbicidal rate of 5% or less (almost no effect)) | 0 (Herbicidal rate of 5% or less (almost no effect)) | 0 (Herbicidal rate of 5% or less (almost no effect)) | 0 (Herbicidal rate of 5% or less (almost no effect)) | 0 (Herbicidal rate of 5% or less (almost no effect)) | 0 (Herbicidal rate of 5% or less (almost no effect)) | 2 (Herbicidal rate of 20% or more and less than 40%) | 2 (Herbicidal rate of 20% or more and less than 40%) | – |
| Cc1nn(C)c(=O)c(-c2c(-c3ccc(CO)cc3)sc3ccccc23)c1O [1-238] | 3 (Herbicidal rate of 40% or more and less than 70%) | 0 (Herbicidal rate of 5% or less (almost no effect)) | 3 (Herbicidal rate of 40% or more and less than 70%) | 5 (Herbicidal rate of 90% or more (almost completely withered)) | 3 (Herbicidal rate of 40% or more and less than 70%) | 0 (Herbicidal rate of 5% or less (almost no effect)) | 4 (Herbicidal rate of 70% or more and less than 90%) | 0 (Herbicidal rate of 5% or less (almost no effect)) | 4 (Herbicidal rate of 70% or more and less than 90%) | 4 (Herbicidal rate of 70% or more and less than 90%) | 4 (Herbicidal rate of 70% or more and less than 90%) | 5 (Herbicidal rate of 90% or more (almost completely withered)) | 4 (Herbicidal rate of 70% or more and less than 90%) | – |
